Measured values published in ChEMBL document CHEMBL1201861, “Genomics of Drug Sensitity in Cancer screening data, Wellcome Trust Sanger Institute”.

Tests used:
NCI-H1792 = assay: cells; type: functional, cell-based, Homo sapiens; conditions: Homo sapiens, NCI-H1792;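 further: growth inhibition of human NCI-H1792 cells, read out as cell viability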
Description: SANGER: Inhibition of human NCI-H1792 cell growth in a cell viability assay.

HSC-4 = assay: cells; type: functional, cell-based, Homo sapiens; conditions: Homo sapiens, HSC-4;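 further: growth inhibition of human HSC-4 cells, read out with a cell viability assay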
Description: SANGER: Inhibition of human HSC-4 cell growth in a cell viability assay.

NCI-H441 = assay: cells; type: functional, cell-based; conditions: Homo sapiens;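 further: growth inhibition of NCI-H441 cells, read out with a cell viability assay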
Description: SANGER: Inhibition of human NCI-H441 cell growth in a cell viability assay.

DU-4475 = assay: cells; type: functional, cell-based; conditions: Homo sapiens
Description: SANGER: Inhibition of human DU-4475 cell growth in a cell viability assay.

NCI-H889 = assay: cells; type: functional, cell-based; conditions: Homo sapiens;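 further: cell growth inhibition of the cell line, read out with a viability assay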
Description: SANGER: Inhibition of human NCI-H889 cell growth in a cell viability assay.

HT-1080 = assay: cells; type: functional, cell-based, Homo sapiens; conditions: Homo sapiens, HT-1080
Description: SANGER: Inhibition of human HT-1080 cell growth in a cell viability assay.

NCI-H1395 = assay: cells; type: functional, cell-based, Homo sapiens; conditions: Homo sapiens, NCI-H1395;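 further: cell viability assay read-out quantifying reduced proliferation of human NCI-H1395 cells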
Description: SANGER: Inhibition of human NCI-H1395 cell growth in a cell viability assay.

TUR = assay: cells; type: functional, cell-based; conditions: Homo sapiens;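 further: growth inhibition of human TUR cells, read out with a cell viability assay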
Description: SANGER: Inhibition of human TUR cell growth in a cell viability assay.

MEL-JUSO = assay: cells; type: functional, cell-based, Homo sapiens; conditions: Homo sapiens, MEL-JUSO;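 further: growth inhibition of human MEL-JUSO cells, read out with a cell viability assay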
Description: SANGER: Inhibition of human MEL-JUSO cell growth in a cell viability assay.

REH = assay: cells; type: functional, cell-based; conditions: Homo sapiens;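 further: growth inhibition of REH cells determined with a cell viability read-out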
Description: SANGER: Inhibition of human REH cell growth in a cell viability assay.

LS-123 = assay: cells; type: functional, cell-based, Homo sapiens; conditions: Homo sapiens, LS-123
Description: SANGER: Inhibition of human LS-123 cell growth in a cell viability assay.

GB-1 = assay: cells; type: functional, cell-based, Homo sapiens; conditions: Homo sapiens, GB-1;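 further: growth of GB-1 cells judged by a viability assay, IC50 marks the concentration inhibiting growth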
Description: SANGER: Inhibition of human GB-1 cell growth in a cell viability assay.

RPMI 8402 = assay: SANGER: Inhibition of human RPMI-8402 cell growth in a cell viability assay.; type: functional, cell-based
CPC-N = assay: cells; type: functional, cell-based; conditions: Homo sapiens;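 further: growth inhibition of CPC-N cells, with a cell viability assay as the readout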
Description: SANGER: Inhibition of human CPC-N cell growth in a cell viability assay.

DSH1 = assay: cells; type: functional, cell-based, Homo sapiens; conditions: Homo sapiens, DSH1;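 further: growth inhibition of human DSH1 cells, measured with a cell viability readout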
Description: SANGER: Inhibition of human DSH1 cell growth in a cell viability assay.

SNU-423 = assay: cells; type: functional, cell-based, Homo sapiens; conditions: Homo sapiens, SNU-423
Description: SANGER: Inhibition of human SNU-423 cell growth in a cell viability assay.

NCI-H748 = assay: cells; type: functional, cell-based; conditions: Homo sapiens;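 further: growth inhibition of NCI-H748 cells, measured by a cell viability assay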
Description: SANGER: Inhibition of human NCI-H748 cell growth in a cell viability assay.

NCI-H522 = assay: cells; type: functional, cell-based, Homo sapiens; conditions: Homo sapiens, NCI-H522;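 further: cell viability assay measuring growth inhibition of human NCI-H522 cells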
Description: SANGER: Inhibition of human NCI-H522 cell growth in a cell viability assay.

COLO-680N = assay: cells; type: functional, cell-based, Homo sapiens; conditions: Homo sapiens, COLO-680N;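 further: cell viability assay used to measure inhibition of COLO-680N cell growth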
Description: SANGER: Inhibition of human COLO-680N cell growth in a cell viability assay.

CMK = assay: cells; type: functional, cell-based; conditions: Homo sapiens;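 further: growth inhibition of CMK cells, read out as cell viability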
Description: SANGER: Inhibition of human CMK cell growth in a cell viability assay.

NCI-H1522 = assay: cells; type: functional, cell-based; conditions: Homo sapiens;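 further: growth inhibition of NCI-H1522 cells, read out with a cell viability assay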
Description: SANGER: Inhibition of human NCI-H1522 cell growth in a cell viability assay.

NCI-H64 = assay: cells; type: functional, cell-based; conditions: Homo sapiens;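 further: growth inhibition of NCI-H64 cells, read out with a cell viability assay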
Description: SANGER: Inhibition of human NCI-H64 cell growth in a cell viability assay.

no-11 = assay: cells; type: functional, cell-based, Homo sapiens; conditions: Homo sapiens;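 further: growth inhibition of human NO-11 cells, read out with a cell viability assay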
Description: SANGER: Inhibition of human no-11 cell growth in a cell viability assay.

A3-KAW = assay: cells; type: functional, cell-based; conditions: Homo sapiens;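 further: growth inhibition of human A3-KAW cells, read out with a cell viability assay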
Description: SANGER: Inhibition of human A3-KAW cell growth in a cell viability assay.

U-698-M = assay: cells; type: functional, cell-based; conditions: Homo sapiens
Description: SANGER: Inhibition of human U-698-M cell growth in a cell viability assay.

AU565 = assay: cells; type: functional, cell-based, Homo sapiens; conditions: Homo sapiens, AU565;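 further: cell viability assay measuring growth inhibition of human AU565 cells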
Description: SANGER: Inhibition of human AU565 cell growth in a cell viability assay.

NALM-6 = assay: cells; type: functional, cell-based; conditions: Homo sapiens;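 further: growth inhibition of NALM-6 cells, read out with a cell viability assay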
Description: SANGER: Inhibition of human NALM-6 cell growth in a cell viability assay.

NCCIT = assay: SANGER: Inhibition of human NCCIT cell growth in a cell viability assay.; type: functional, cell-based
23132-87 = assay: cells; type: functional, cell-based, Homo sapiens; conditions: Homo sapiens
Description: SANGER: Inhibition of human 23132-87 cell growth in a cell viability assay.

CGTH-W-1 = assay: cells; type: functional, cell-based, Homo sapiens; conditions: Homo sapiens, CGTH-W-1;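 further: growth inhibition of human CGTH-W-1 cells measured by cell viability assay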
Description: SANGER: Inhibition of human CGTH-W-1 cell growth in a cell viability assay.

H4 = assay: cells; type: functional, cell-based; conditions: Homo sapiens
Description: SANGER: Inhibition of human H4 cell growth in a cell viability assay.

EB2 = assay: cells; type: functional, cell-based; conditions: Homo sapiens;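 further: growth inhibition of EB2 cells, read out with a cell viability assay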
Description: SANGER: Inhibition of human EB2 cell growth in a cell viability assay.

SR = assay: cells; type: functional, cell-based; conditions: Homo sapiens
Description: SANGER: Inhibition of human SR cell growth in a cell viability assay.

ST486 = assay: SANGER: Inhibition of human ST486 cell growth in a cell viability assay.; type: functional, cell-based
G-361 = assay: cells; type: functional, cell-based, Homo sapiens; conditions: Homo sapiens, G-361
HDLM-2 = assay: cells; type: functional, cell-based; conditions: Homo sapiens;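 further: cell viability assay measuring suppression of HDLM-2 proliferation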
Description: SANGER: Inhibition of human HDLM-2 cell growth in a cell viability assay.

SK-MEL3 = assay: cells; type: functional, cell-based, Homo sapiens, SK-MEL-3; conditions: Homo sapiens, SK-MEL3;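 further: growth inhibition of human SK-MEL-3 cells, read out with a cell viability assay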
Description: SANGER: Inhibition of human SK-MEL-3 cell growth in a cell viability assay.

J82 = assay: cells; type: functional, cell-based; conditions: Homo sapiens;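 further: growth inhibition of J82 cells, read out with a cell viability assay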
Description: SANGER: Inhibition of human J82 cell growth in a cell viability assay.

DMS-153 = assay: cells; type: functional, cell-based; conditions: Homo sapiens
Description: SANGER: Inhibition of human DMS-153 cell growth in a cell viability assay.

DU-145 = assay: cells; type: functional, cell-based, Homo sapiens; conditions: Homo sapiens, DU-145
Description: SANGER: Inhibition of human DU-145 cell growth in a cell viability assay.

HT55 = assay: cells; type: functional, cell-based, Homo sapiens; conditions: Homo sapiens, HT55;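 further: cell viability readout measuring growth inhibition of human HT55 cells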
Description: SANGER: Inhibition of human HT55 cell growth in a cell viability assay.

THP-1 = assay: cells; type: functional, cell-based; conditions: Homo sapiens;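 further: growth inhibition of THP-1 cells, read out via a cell viability assay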
Description: SANGER: Inhibition of human THP-1 cell growth in a cell viability assay.

LC4-1 = assay: cells; type: functional, cell-based; conditions: Homo sapiens;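 further: growth inhibition of LC4-1 cells, read out with a cell viability assay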
Description: SANGER: Inhibition of human LC4-1 cell growth in a cell viability assay.

SIG-M5 = assay: cells; type: functional, cell-based; conditions: Homo sapiens;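 further: cell viability assay read-out, measuring how strongly growth of cultured human SIG-M5 cells is inhibited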
Description: SANGER: Inhibition of human SIG-M5 cell growth in a cell viability assay.

TALL-1 = assay: cells; type: functional, cell-based; conditions: Homo sapiens;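 further: growth inhibition of cultured human TALL-1 cells, read out by a cell viability assay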
Description: SANGER: Inhibition of human TALL-1 cell growth in a cell viability assay.

BC-3 = assay: cells; type: functional, cell-based; conditions: Homo sapiens;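 further: cell viability assay measuring growth inhibition of human BC-3 cells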
Description: SANGER: Inhibition of human BC-3 cell growth in a cell viability assay.

TE-441-T = assay: cells; type: functional, cell-based; conditions: Homo sapiens
Description: SANGER: Inhibition of human TE-441-T cell growth in a cell viability assay.

HT-144 = assay: cells; type: functional, cell-based, Homo sapiens; conditions: Homo sapiens, HT-144
Description: SANGER: Inhibition of human HT-144 cell growth in a cell viability assay.

PA-1 = assay: cells; type: functional, cell-based, Homo sapiens; conditions: Homo sapiens, PA-1;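 further: IC50 for suppression of PA-1 cell proliferation, determined with a cell viability read-out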
Description: SANGER: Inhibition of human PA-1 cell growth in a cell viability assay.

MC-CAR = assay: cells; type: functional, cell-based; conditions: Homo sapiens;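 further: growth inhibition of the human MC-CAR cell line, read out by a cell viability assay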
Description: SANGER: Inhibition of human MC-CAR cell growth in a cell viability assay.

TE-6 = assay: cells; type: functional, cell-based, Homo sapiens; conditions: Homo sapiens, TE-6;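 further: growth inhibition of TE-6 cells, read out with a cell viability assay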
Description: SANGER: Inhibition of human TE-6 cell growth in a cell viability assay.

PC-14 = assay: cells; type: functional, cell-based, Homo sapiens; conditions: Homo sapiens, PC-14;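 further: cell viability assay measuring inhibition of PC-14 cell growth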
Description: SANGER: Inhibition of human PC-14 cell growth in a cell viability assay.

NCI-H524 = assay: cells; type: functional, cell-based; conditions: Homo sapiens;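 further: growth inhibition of human NCI-H524 cells, read out through a cell viability assay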
Description: SANGER: Inhibition of human NCI-H524 cell growth in a cell viability assay.

With CN(c1ncccc1CNc1nc(Nc2ccc3c(c2)CC(=O)N3)ncc1C(F)(F)F)S(C)(=O)=O [PF-00562271] the IC50 (NCI-H1792) was over 2560 nM, the IC50 (HSC-4) was over 2560 nM and the IC50 (NCI-H441) was over 2560 nM. The IC50 (DU-4475) was 2150 nM, the IC50 (NCI-H889) was over 2560 nM and the IC50 (HT-1080) was over 2560 nM. For the same compound, the IC50 (NCI-H1395) was over 2560 nM, the IC50 (TUR) was over 2560 nM and the IC50 (MEL-JUSO) was 1730 nM. For the same compound, the IC50 (REH) was over 2560 nM, the IC50 (LS-123) was over 2560 nM and the IC50 (GB-1) was over 2560 nM. It also gave an IC50 (RPMI 8402) of over 2560 nM, an IC50 (CPC-N) of over 2560 nM and an IC50 (DSH1) of over 2560 nM. For the same compound, the IC50 (SNU-423) was over 2560 nM, the IC50 (NCI-H748) was over 2560 nM and the IC50 (NCI-H522) was over 2560 nM. For the same compound, the IC50 (COLO-680N) was over 2560 nM, the IC50 (CMK) was 2420 nM and the IC50 (NCI-H1522) was over 2560 nM. For the same compound, the IC50 (NCI-H64) was over 2560 nM, the IC50 (no-11) was over 2560 nM and the IC50 (A3-KAW) was over 2560 nM. The IC50 (U-698-M) was over 2560 nM, the IC50 (AU565) was over 2560 nM and the IC50 (NALM-6) was over 2560 nM. It also gave an IC50 (NCCIT) of over 2560 nM, an IC50 (23132-87) of over 2560 nM and an IC50 (CGTH-W-1) of 1620 nM. For the same compound, the IC50 (H4) was over 2560 nM, the IC50 (EB2) was over 2560 nM and the IC50 (SR) was over 2560 nM. It also gave an IC50 (ST486) of 1530 nM, an IC50 (G-361) of over 2560 nM and an IC50 (HDLM-2) of over 2560 nM. The IC50 (SK-MEL3) was over 2560 nM, the IC50 (J82) was over 2560 nM and the IC50 (DMS-153) was over 2560 nM. It also gave an IC50 (DU-145) of 2490 nM, an IC50 (HT55) of over 2560 nM and an IC50 (THP-1) of over 2560 nM. The IC50 (LC4-1) was over 2560 nM, the IC50 (SIG-M5) was 1480 nM and the IC50 (TALL-1) was over 2560 nM. It also gave an IC50 (BC-3) of over 2560 nM, an IC50 (TE-441-T) of over 2560 nM and an IC50 (HT-144) of over 2560 nM. It also gave an IC50 (PA-1) of over 2560 nM, an IC50 (MC-CAR) of over 2560 nM and an IC50 (TE-6) of over 2560 nM. It also gave an IC50 (PC-14) of over 2560 nM and an IC50 (NCI-H524) of over 2560 nM.

Work on CCC1=C[C@@H]2CN(C1)Cc1c([nH]c3ccccc13)[C@@](C(=O)OC)(c1cc3c(cc1OC)N(C)[C@H]1[C@@](O)(C(=O)OC)[C@H](OC(C)=O)[C@]4(CC)C=CCN5CC[C@]31[C@@H]54)C2 [VINORELBINE] yielded an IC50 (NCI-H1792) of over 64 nM, an IC50 (HSC-4) of over 64 nM and an IC50 (NCI-H441) of 33.1 nM. The IC50 (DU-4475) was 48.1 nM, the IC50 (NCI-H889) was 40.3 nM and the IC50 (HT-1080) was 2.49 nM. For the same compound, the IC50 (NCI-H1395) was 53.5 nM, the IC50 (TUR) was 7.2 nM and the IC50 (MEL-JUSO) was 4.26 nM. The IC50 (REH) was 7.21 nM, the IC50 (LS-123) was over 64 nM and the IC50 (GB-1) was over 64 nM. For the same compound, the IC50 (RPMI 8402) was 12.3 nM, the IC50 (CPC-N) was over 64 nM and the IC50 (DSH1) was 4.87 nM. It also gave an IC50 (SNU-423) of 5.54 nM, an IC50 (NCI-H748) of 57 nM and an IC50 (NCI-H522) of 0.535 nM. The IC50 (COLO-680N) was 53.3 nM, the IC50 (CMK) was 13.7 nM and the IC50 (NCI-H1522) was over 64 nM. It also gave an IC50 (NCI-H64) of 7.27 nM, an IC50 (no-11) of over 64 nM and an IC50 (A3-KAW) of 21.6 nM. The IC50 (U-698-M) was 12.2 nM, the IC50 (AU565) was 8.19 nM and the IC50 (NALM-6) was 5.94 nM. The IC50 (NCCIT) was 5.42 nM, the IC50 (23132-87) was 6.95 nM and the IC50 (CGTH-W-1) was 0.232 nM. It also gave an IC50 (H4) of 7.85 nM, an IC50 (EB2) of 6.7 nM and an IC50 (SR) of 5.84 nM. For the same compound, the IC50 (ST486) was 2.96 nM, the IC50 (G-361) was 3.53 nM and the IC50 (HDLM-2) was 15.9 nM. It also gave an IC50 (SK-MEL3) of 17.3 nM, an IC50 (J82) of over 64 nM and an IC50 (DMS-153) of over 64 nM. For the same compound, the IC50 (DU-145) was 4.81 nM, the IC50 (HT55) was over 64 nM and the IC50 (THP-1) was over 64 nM. It also gave an IC50 (LC4-1) of 7.19 nM, an IC50 (SIG-M5) of 2.48 nM and an IC50 (TALL-1) of over 64 nM. It also gave an IC50 (BC-3) of 31.1 nM, an IC50 (TE-441-T) of 34.9 nM and an IC50 (HT-144) of 0.591 nM. The IC50 (PA-1) was 3.12 nM, the IC50 (MC-CAR) was 9.27 nM and the IC50 (TE-6) was over 64 nM. For the same compound, the IC50 (PC-14) was 3.26 nM and the IC50 (NCI-H524) was over 64 nM.
